This is an account of results in US20110124086A1, “Hepatitis C Virus Culture System” (The Regents of the University of California, priority 2009, published 2011).

Assay type in all cases: cell-based, Hepatitis C virus
Test [1] concerns HCV of genotype 1b (CG1b). The test is described as follows: Antiviral activity of IFNα in Huh7 cells infected with FH-CG1bRbz hepatocyte-derived medium, HCV RNA by qRT-PCR. As to conditions: IFNα 100 U/ml once, 48 hrs after infection, analysed after 24 hrs. The protocol:
Huh7 cells were infected with hepatocyte-derived medium. Then, after 48 hrs, cells were treated with 0 or 100 U/ml of IFNα once and analyzed for HCV RNA by qRT-PCR after 24 hrs. N.D. indicates not detectable or below the level of detection.
Huh7 human hepatoma cells were transfected with in vitro-transcribed JFH1 RNA and cultured, as previously described (Choi et al. (2004) Hepatology 39:91-9). Telomerase-reconstituted primary human hepatocytes were transfected with pEF-CG1 bRbz/Neo, pEF-CG1 bGNDRbz/Neo, or control EF-driven vector alone as described for Huh7, and cell clones that are stably transfected with these constructs were selected and maintained in G418-containing medium (Invitrogen) (Wege et al. (2004) Gastroenterology 124:432-44). For virus infection, the extracellular medium from JFH1-transfected cells and CG1b transfected cell clones was cleared by low speed centrifugation at 5,000 rpm for 10 min and concentrated ˜10 fold by ultracentrifugation at 21,000 rpm for 6.5 hrs at 4° C. The medium was also pre-treated with RNase (and also with DNase for CG1b medium) for 30 min at room temperature prior to these centrifugation steps. Then, the concentrated virus samples were used to inoculate naïve Huh7 or Huh7.5 cells (Wakita et al. (2005) Nat. Med. 11:791-6). […]
(§1) HCV RNA was quantified by quantitative reverse transcriptase polymerase chain reaction (qRT-PCR) as described. […]
A general note: Real-time PCR tracks product formation cycle by cycle.

Test [2] concerns HCV genotype 1b (CG1b) in FH-CG1bRbz cells. Put plainly: Effect of PKR and Jak2 inhibitor on intracellular HCV RNA in FH-CG1bRbz cells, qRT-PCR. Particulars: C5 1 μM or Jak2 inhibitor II 10 and 50 μM, 48 or 96 hr incubation. As to the method:
(§2) Cg1bRbz cells were treated with C5 (1 μM) or Jak2 inhibitor II (10 and 50 μM) for 48 or 96 hrs and analyzed for intracellular HCV RNAs by qRT-PCR. Huh7 cells transfected with JFH1 RNA were also used as a control. Bottom right—Huh7 cells were inoculated with virus samples prepared from control and Jak2 inhibitor II-treated later passage FH cell culture medium and analyzed for HCV RNA after 48 hrs by qRT-PCR.
HCV RNA was quantified by quantitative reverse transcriptase polymerase chain reaction (qRT-PCR) as described. Intracellular HCV RNA levels were normalized by glyceraldehydes 3-phosphate dehydrogenase mRNA content. Standard curves were generated using in vitro-transcribed HCV RNA's. Control reactions containing no reverse transcriptase were also carried out as controls. HCV protein levels were visualized by immunofluorescence staining followed by confocal microscopy. […]
(§3) It was then examined whether suppressing the hepatocyte innate immunity by inhibiting Jak/Stat pathway and/or PKR could increase the HCV titer in Applicants' FH cell clones and therefore, increase the infectivity of CG1b. HCV RNA level was analyzed in FH-CG1 bRbz cells after 48 or 96 hr incubation with C5, an inhibitor of PKR, or Jak2 Inhibitor II.

For test [3], the system named is JFH1 (HCV genotype 2a) in Huh7 cells. The test is described as follows: Effect of PKR and Jak2 inhibitor on intracellular HCV RNA in Huh7 cells transfected with JFH1 RNA, qRT-PCR. As to conditions: C5 1 μM or Jak2 inhibitor II 10 and 50 μM, 48 or 96 hrs. As to the method:
as §2
(§4) Huh7 human hepatoma cells were transfected with in vitro-transcribed JFH1 RNA and cultured, as previously described (Choi et al. (2004) Hepatology 39:91-9). Telomerase-reconstituted primary human hepatocytes were transfected with pEF-CG1 bRbz/Neo, pEF-CG1 bGNDRbz/Neo, or control EF-driven vector alone as described for Huh7, and cell clones that are stably transfected with these constructs were selected and maintained in G418-containing medium (Invitrogen) (Wege et al. (2004) Gastroenterology 124:432-44). […]
as §1, §3

The subject of another test is HCV genotype 1b (CG1b). The test is described as follows: HCV infectivity of medium from Jak2 inhibitor II-treated FH-CG1bRbz cells inoculated on Huh7 cells, HCV RNA by qRT-PCR. Particulars: HCV RNA after 48 hrs, later passage FH cell culture medium. As to the method:
as §2, §4, §1, §3

On to interferon alpha [IFNα], for which the “HCV titer (HCV RNA) in CG1b-infected Huh7 cells” value is given as “decreased HCV titer” in test [1] and “decreased” in test [1] (listed as interferon alpha).

As to `BrC1C(Br)C(Br)C(Br)C(Br)C1Br` (centres unmarked) [Jak2 Inhibitor II], the “intracellular HCV RNA in FH-CG1bRbz cells” value in test [2] is given as “intracellular HCV RNA increased”. Moreover, in test [3], the “intracellular HCV RNA in Huh7 cells transfected with JFH1 RNA” value is recorded as “an increase in the intracellular HCV RNA”. The “HCV infectivity of medium from Jak2 inhibited FH-CG1bRbz cells compared to medium from control cells” value in the test on HCV genotype 1b (CG1b) is recorded as “increased only modestly”.
